According to PMC8486167, “Orally Active Peptide Vector Allows Using Cannabis to Fight Pain While Avoiding Side Effects” (Journal of Medicinal Chemistry, 2021):
Square brackets hold non-standard residues; d marks the D form. Ends that are not written are not given here. Peptide text beside a SMILES is read from it.

Columns and labels:
trypsin = conditions: 24 h vs 0 h, HPLC main peak area, mean ± SEM, n = 2
Method: Peptide samples, incubated with trypsin, were collected and analyzed as before.[60] For human serum digestion, peptide [1000 μM, 2% dimethyl sulfoxide (DMSO) in filtered H2O] was added to human serum (Sigma, St Louis, Missouri) in a 1:1 ratio and incubated at 37 °C with gentle shaking. At 0 min and 24 h, aliquots were taken and proteolysis was stopped with CH3CN (80% in filtered H2O), chilled at 0 °C for 15 min to precipitate serum proteins, and centrifuged at 13,000 rpm at 4 °C for 10 min. The supernatant was collected and analyzed by analytical RP-HPLC and LC–MS as described before,[60] with a 0–95% linear gradient of CH3CN over 15 min. All experiments are performed in duplicate and data were fitted with GraphPad Prism.

CB1R–5HT2AR heteromer [1] = biological target: T1, CB1R–5HT2AR heteromer (Homo sapiens, UniProt P28223); test: cAMP production (HTRF), decrease in FK-induced cAMP; assay type: cell-based; conditions: for FK-induced cAMP production after agonist: agonist 100 nM, all groups
T1 construct: expressed in transfected cells; host or cells: HEK-293T / HEK-293
T1 sequence (P28223 whole entry, one chain of several): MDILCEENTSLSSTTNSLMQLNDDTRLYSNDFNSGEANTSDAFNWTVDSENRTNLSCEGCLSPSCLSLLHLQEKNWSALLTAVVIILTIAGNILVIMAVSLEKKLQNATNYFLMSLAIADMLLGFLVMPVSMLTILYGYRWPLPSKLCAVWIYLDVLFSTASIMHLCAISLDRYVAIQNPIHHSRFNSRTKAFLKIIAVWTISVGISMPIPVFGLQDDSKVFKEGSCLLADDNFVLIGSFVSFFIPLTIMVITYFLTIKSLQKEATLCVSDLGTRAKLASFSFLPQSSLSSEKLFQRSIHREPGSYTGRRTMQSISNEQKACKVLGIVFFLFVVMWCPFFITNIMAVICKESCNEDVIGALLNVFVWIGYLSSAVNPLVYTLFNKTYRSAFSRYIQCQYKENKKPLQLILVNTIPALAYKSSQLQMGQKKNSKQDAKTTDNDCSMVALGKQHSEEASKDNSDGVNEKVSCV
Method: Sequences encoding YFP Venus protein amino acid residues 1–155 and 156–238 were subcloned in the pcDNA3.1 vector to obtain the YFP Venus hemitruncated proteins. The human cDNAs for 5HT2AR and CB1R, cloned into the pcDNA3.1, were amplified and subcloned as described[18] to give 5HT2AR-cYFP and CB1R-nYFP. Human embryonic kidney (HEK-293T) cells obtained from ATCC were grown in Dulbecco’s modified Eagle’s medium (DMEM) (Gibco) supplemented with 2 mM L-glutamine, 100 μg/mL sodium pyruvate, 100 U/mL penicillin/streptomycin, MEM nonessential amino acid solution (1/100), and 5% (v/v) heat-inactivated fetal bovine serum (FBS) (all supplements from Invitrogen, Paisley, Scotland, UK). Cells were maintained at 37 °C in an atmosphere of 5% CO2. HEK-293T cells were transfected with the corresponding fusion protein cDNA by the polyethylenimine (Sigma) method, as described before.[18]
For cAMP production, homogeneous time-resolved fluorescence energy transfer (HTRF) assays were performed as previously described.[18] […] Fluorescence at 665 nm was analyzed on a PHERAstar Flagship microplate reader equipped with an HTRF optical module (BMG Lab technologies, Offenburg, Germany).

CB1R–5HT2AR heteromer [2] = biological target: T1, CB1R–5HT2AR heteromer; test: ERK-1/2 phosphorylation assay (α-screen); assay type: cell-based
Method: Phosphorylation was determined in white ProxiPlate 384-well microplates (PerkinElmer Life Sciences) by the α-screen bead-based technology using the amplified luminescent proximity homogeneous assay kit (PerkinElmer Life Sciences) and using the Enspire multimode plate reader (PerkinElmer Life Sciences). Phosphorylation is expressed in arbitrary units, ALPHAcounts, as measured by light emission at 520–620 nm of the acceptor beads.

mice [3] = test: Novel object recognition test (THC memory impairment); assay type: in vivo; conditions: mouse; THC 3 mg/kg IP
Method: On day 1 (Habituation), mice were habituated for 9 min to the V-maze in which the task was performed. The following day (Training), mice were placed in the V-maze for 9 min, two identical objects were presented and the time that the mice spent exploring each object was recorded. Mice were again placed in the maze 24 h later for 9 min (Test), one of the familiar objects was replaced with a novel object and the total time spent exploring each of the two objects (novel and familiar) was recorded. Object exploration was defined as the orientation of the nose to the object at less than 2 cm. A discrimination index was calculated as the difference between the time spent exploring the novel or familiar object divided by the total time exploring the two objects. A higher discrimination index is considered to reflect greater memory retention for the familiar object.
Thirty min after peptide administration, mice received an IP injection of vehicle (5% v/v of ethanol, 5% v/v of Cremophor-EL, and 90% v/v saline) or 3 mg/kg of THC dissolved in vehicle.

mice [4] = test: Hot-plate test (THC-induced analgesia); conditions: mouse; THC 10 mg/kg IP
mice [5] = test: Immunogenicity: mice immunization and serum ELISA; assay type: in vivo, mouse; conditions: CD-1 mice, IV, 5 consecutive days and boost at day 15; 17 at 100 μg/dose, 17-KLH at 30 μg; sera days 0, 9, 19; plates coated with 17-BSA
Method: Experiments were performed at the ICTS “NANBIOSIS” Custom Antibody Service (CAbS, CIBER-BBN, IQAC-CSIC). The immune response to 17 was assessed in outbred Swiss ICR (CD-1) mice strain Hsd:ICR (CD-1) (Envigo RMS, The Netherlands), following the immunization schedule in Figure 7. Animals were housed under standard conditions in the CID-CSIC animal facility. Animal experimental procedures were conducted in accordance with protocols approved by CSIC Committee on Ethics of Animal Experiments and Biosafety, as well as the Spanish National Committee on Ethics and Animal Welfare. Briefly, a first group of 10 female mice received IV doses of 17 (200 μL, 20 mg/kg, PBS + 2% DMSO), a second group of 5 mice received IV doses of 17-KLH conjugate (200 μL, 30 μg) and a third group of 5 mice received IVdoses of PBS (200 μL, negative control). The 17-KLH conjugate, administered with Freund’s adjuvant, was also used to generate polyclonal antibody (positive control) (data not shown). Serum samples were collected by tail vein bleeds on days 0, 9, and 19. […] The peptide-specific humoral response was determined by indirect ELISA. […] Color development was stopped with 4 N H2SO4 (50 μL/well) after 30 min at r.t., and absorbance read at 450 nm. Titers in a log10 scale were expressed as the reciprocal of the last dilution giving the absorbance recorded in the control wells (serum at day 0) plus 2 SD.

[6] = system: bEnd.3 brain endothelial cells; conditions: 5(6)-carboxyfluorescein-labeled peptides; bEnd.3 cells; fluorescence in basolateral chamber after 24 h; n = 3–6
Method: bEnd.3 brain endothelial cells (ATCC CRL-2299TM) were grown as a monolayer in DMEM supplemented with 10% FBS and 1% penicillin/streptomycin solution (Gibco, USA). Cells were cultured in a humidified atmosphere of 95% air and 5% CO2 at 37 °C (MCO-18AIC (UV), Sanyo, Japan), with daily medium replacement.
The translocation capabilities of 5(6)-carboxyfluorescein-labeled peptides were determined using a protocol previously described.[30],[31] After the experiment, the integrity of the endothelial barrier was checked by measuring the permeability of a 4 kDa fluorescently labeled dextran (FD4) as previously described.[25] Experiments were carried out on different days using independently grown cell cultures.

[7] = RIM 1 μM vs DOI 100 nM, MDL 300 nM vs WIN 100 nM, no peptide

Molecule: AGILKRWKTLVLILVV-NH2 [compound 9]
- proteolytic stability: unaltered peptide remaining after trypsin incubation (trypsin): poor survival

Molecule: LIKTVFAFCSMLCLLNSTVNPIIYALRGRKKRRQRRR [TM7-Tat, peptide TM7-Tat, used as a negative control]
- elimination of bidirectional cross-antagonism (FK-induced cAMP) (CB1R–5HT2AR heteromer [1]; DOI 100 nM, WIN 100 nM, MDL 300 nM, RIM 1 μM, 0.5 μM FK, n = 3–6): not observed with TM7-Tat
- influence on G protein coupling preference of 5HT2AR (CB1R–5HT2AR heteromer [1]; FK-induced cAMP, 0.5 μM FK, WIN 100 nM or DOI 100 nM, transfected HEK-293T cells, n = 3–6): 5HT2AR remains Gi-coupled in the presence of interfering peptides
- elimination of bidirectional cross-antagonism (pERK) (CB1R–5HT2AR heteromer [2]; DOI 100 nM, WIN 100 nM, MDL 300 nM, RIM 1 μM, % of basal, n = 4–9): not observed with TM7-Tat

Molecule: Cc1c(C(=O)c2cccc3ccccc23)c2cccc3c2n1[C@H](CN1CCOCC1)CO3 [WIN, WIN 55,212-2]
- FK-induced cAMP production after agonist (CB1R–5HT2AR heteromer [1]; 0.5 μM FK): reduced cAMP production

Molecule: COc1cc(CC(C)N)c(OC)cc1I (stereo not shown) [DOI, 2,5-dimethoxy-4-iodoamphetamine]
- FK-induced cAMP production after agonist (CB1R–5HT2AR heteromer [1]; 0.5 μM FK): reduced cAMP production

Molecule: VYAYMYILWSKSKSK-NH2 [compound 6]
- proteolytic stability: unaltered peptide remaining after trypsin incubation (trypsin): poor survival

Molecule: SKSKSKKTLVLILVV-NH2 [compound 10]
- proteolytic stability: unaltered peptide remaining after trypsin incubation (trypsin): poor survival

Molecule: CCCCCc1cc(O)c2c(c1)OC(C)(C)[C@@H]1CCC(C)=C[C@@H]21 [THC, Δ^9-tetrahydrocannabinol]
- THC effect in novel object recognition test (mice [3]): memory impairment
- THC effect in hot-plate test (mice [4]): analgesic effects

Molecule: Cc1c(C(=O)NN2CCCCC2)nn(-c2ccc(Cl)cc2Cl)c1-c1ccc(Cl)cc1 [RIM, rimonabant]
- antagonist block of the partner receptor's agonist signal (cross-antagonism, cAMP) (CB1R–5HT2AR heteromer [1]; [7]): blocked the decrease in FK-induced cAMP or the increase in pERK triggered by the 5HT2AR agonist DOI
- antagonist block of the partner receptor's agonist signal (cross-antagonism, pERK) (CB1R–5HT2AR heteromer [2]; [7]): blocked the decrease in FK-induced cAMP or the increase in pERK triggered by the 5HT2AR agonist DOI

Molecule: CC[C@@H](C)[C@@H](NC(=O)CNC(=O)[C@@H](C)NC(=O)[C@H](NC(=O)[C@@H](Cc1ccc(O)cc1)NC(=O)[C@@H](C)NC(=O)[C@@H](Cc1ccc(O)cc1)NC(=O)[C@@H](CCSC)NC(=O)[C@@H](Cc1ccc(O)cc1)NC(=O)[C@H](NC(=O)[C@@H](CC(C)C)NC(=O)[C@H](N)Cc1c[nH]c2ccccc12)[C@H](C)CC)C(C)C)C(=O)N[C@H](CC(C)C)C(=O)N[C@H](CCCCN)C(=O)N[C@H](CCCNC(=N)N)C(=O)N[C@H](Cc1c[nH]c2ccccc12)C(N)=O [compound 17] (H-[dW][dL][dI][dY][dM][dY][dA][dY][dV][dA]G[dI][dL][dK][dR][dW]-NH2)
- immunogenicity: peptide-specific antibody response (ELISA titers) (mice [5]): did not evoke any detectable immune response

Molecule: CC[C@@H](C)[C@@H](NC(=O)CNC(=O)[C@@H](C)N)C(=O)N[C@H](CC(C)C)C(=O)N[C@H](CCCCN)C(=O)N[C@H](CCCNC(=N)N)C(=O)N[C@H](Cc1c[nH]c2ccccc12)C(=O)N[C@@H](CCCCN)C(=O)N[C@H](C(=O)N[C@@H](CC(C)C)C(=O)N[C@H](C(=O)N[C@@H](CC(C)C)C(=O)N[C@H](C(=O)N[C@@H](CC(C)C)C(=O)N[C@H](C(=O)N[C@H](C(N)=O)C(C)C)C(C)C)[C@@H](C)CC)C(C)C)[C@@H](C)O [compound 15] (H-[dA]G[dI][dL][dK][dR][dW]KTLVLILVV-NH2)
- translocation across the transwell BBB model [6]: translocated more efficiently than 14 and 16

Molecule: VYAYMYILWAGILKRW-NH2 [compound 5]
- proteolytic stability: unaltered peptide remaining after trypsin incubation (trypsin): poor survival

Molecule: CC[C@@H](C)[C@@H](NC(=O)CNC(=O)[C@@H](C)NC(=O)[C@H](Cc1c[nH]c2ccccc12)NC(=O)[C@H](CC(C)C)NC(=O)[C@@H](NC(=O)[C@H](Cc1ccc(O)cc1)NC(=O)[C@H](CCSC)NC(=O)[C@H](Cc1ccc(O)cc1)NC(=O)[C@H](C)NC(=O)[C@H](Cc1ccc(O)cc1)NC(=O)[C@@H](N)C(C)C)[C@@H](C)CC)C(=O)N[C@H](CC(C)C)C(=O)N[C@H](CCCCN)C(=O)N[C@H](CCCNC(=N)N)C(=O)N[C@H](Cc1c[nH]c2ccccc12)C(N)=O [compound 13] (H-VYAYMYILW[dA]G[dI][dL][dK][dR][dW]-NH2)
- translocation across the transwell BBB model [6]: translocated more efficiently than 14 and 16
